Test results taken from ChEMBL document CHEMBL3045931, “QSAR studies of antituberculosis drug using three-dimensional structure descriptors” (Med Chem Res, 2013).

Tested on: Mycobacterium tuberculosis
Experiment: Antitubercular activity against Mycobacterium tuberculosis assessed as growth inhibition […]
Type: functional, organism-based
Settings: read-out: log(1/IC50) (converted)

`Cc1ccc(C(=O)N2CCN(c3ccccc3)CC2)cc1` gave an IC50 of 16.6 µM.

`Cc1cccc(C(=O)N2CCN(c3cccc(Cl)c3)CC2)c1` was tested, and the IC50 was 9.33 µM.

`O=C(c1ccc(F)cc1)N1CCN(c2cccc(Cl)c2)CC1` was tested, and the IC50 was 9.77 µM.

`Cc1ccc(C(=O)N2CCN(c3cccc(C(F)(F)F)c3)CC2)cc1C` gave an IC50 of 1.86 µM.

In the case of `CC(C)(C)c1ccc(C(=O)N2CCN(c3cccc(Cl)c3)CC2)cc1`, the IC50 is reported as 100 µM.

`CC(C)(C)c1ccc(C(=O)N2CCN(c3cccc(C(F)(F)F)c3)CC2)cc1` was tested, and the IC50 was 100 µM.

With `O=C(c1cccc(Cl)c1)N1CCN(c2cccc(Cl)c2)CC1` the IC50 was 6.76 µM.

Molecule `O=C(c1ccc(Cl)c(Cl)c1)N1CCN(c2ccccc2)CC1` has an IC50 of 17.8 µM.

Work on `O=C(c1ccccc1)N1CCN(Cc2ccccc2)CC1` yielded an IC50 of 31.6 µM.

For `O=C(c1cccc(Cl)c1)N1CCC(Cc2ccccc2)CC1`, the IC50 was 7.76 µM.

`Cc1ccc(C(=O)N2CCC(Cc3ccccc3)CC2)cc1` was tested, and the IC50 was 5.13 µM.

For `O=C(c1ccccc1)N1CCN(c2ccccc2)CC1`, the IC50 was 38.9 µM.

For `O=C(c1ccc2[nH]ccc2c1)N1CCN(C(c2ccc(F)cc2)c2ccc(F)cc2)CC1`, the IC50 was 1.05 µM.

In the case of `Cc1ccc(C(=O)N2CCN(C(c3ccc(F)cc3)c3ccc(F)cc3)CC2)cc1`, the IC50 is reported as 1.91 µM.

With `O=C(c1ccccc1)N1CCN(C(c2ccc(F)cc2)c2ccc(F)cc2)CC1` the IC50 was 2.04 µM.

In the case of `CC(C)c1ccc(C(=O)N2CCN(c3cccc(Cl)c3)CC2)cc1`, the IC50 is reported as 100 µM.

Work on `O=C(c1ccccc1F)N1CCN(c2cccc(Cl)c2)CC1` yielded an IC50 of 13.8 µM.

In the case of `Cc1ccc(C(=O)N2CCN(c3cccc(C(F)(F)F)c3)CC2)cc1`, the IC50 is reported as 6.31 µM.

For `Cc1cccc(C(=O)N2CCN(c3ccc([N+](=O)[O-])cc3)CC2)c1`, the IC50 was 15.5 µM.

Molecule `Cc1ccc(N2CCN(C(=O)c3ccc(C(C)(C)C)cc3)CC2)cc1Cl` has an IC50 of 100 µM.

For `O=C(c1ccc(Cl)c(Cl)c1)N1CCN(c2cccc(Cl)c2)CC1`, the IC50 was 6.03 µM.

Work on `Cc1ccc(C(=O)N2CCN(c3cccc(Cl)c3)CC2)cc1` yielded an IC50 of 3.09 µM.

`O=C(c1ccccc1F)N1CCC(Cc2ccccc2)CC1` gave an IC50 of 14.1 µM.
